# Patent US20030176483A1, “Topical synergistic microbicide” (priority 2002, published 2003)
# Key:
# Vero cells [1] = test: Cytotoxicity, neutral red uptake assay; format: cell-based, African green monkey; conditions: after 2 days' incubation, data not shown
# Method: Culture medium was removed from confluent Vero cells in 24-well plates. The cells were then washed once with PBS. […] Cells were incubated at 37° C. for 1 h, 6 h, 2 and 3 days. At each time point, the medium was removed and cells washed with PBS. 500 μl of 0.01% neutral red (in PBS) was added to each well, and the samples were incubated at 37° C. for 30 min. The dye was then removed and the cells washed×2 with 1 ml PBS per well. The dye was extracted by addition of 500 μl of 50% ethanol/1% glacial acetic acid in PBS to each well and incubated at room temperature for 15 min with gentle shaking at 120-150 rpm. 200 μl extracted dye from each well was put into 96-well plate and the absorbance at 550 nm was read on an ELISA reader.
# [2] = test system: HSV-2 thymidine kinase mutant Delta 333; test: Inactivation of drug-resistant HSV-2 TK mutant, plaque reduction assay; format: cell-based, herpes simplex virus; conditions: 37° C. for 1 h, concentration not given
# HSV-1 (strain F) = test: Inactivation of HSV-1 by pre-mixing with drug, plaque reduction assay; format: cell-based, herpes simplex virus; conditions: concentration 0.005%, pre-mixing for 1 h
# Method: (§1) HSV strains G (HSV-2) and F (HSV-1) were used in the experiments. A HSV susceptible cell line, Vero cells (African green monkey kidney cell), was used in the virus yield reduction assays. The culture medium for Vero cells was 5% minimum essential medium (MEM; GIBCO/BRL) supplemented with 5% fetal bovine serum, 100 U/ml penicillin and 100 μg/ml streptomycin).
# (§2) Confluent cells were washed with PBS and subsequently infected with HSV for 1 h at 37° C. After viral inoculum was removed, the infected cells were washed with PBS and overlaid with 0.5% methylcellulose in culture medium. Cells were incubated at 37° C. for 2 days for HSV-2 infection and 3 days for HSV-1. When plaque size was adequate, cells were fixed with 10% formalin for […]. Monolayers were subsequently stained with 0.5% crystal violet for 10 min, and dye was removed by washing with tap water.
# (§3) All data were generated from duplicate or triplicate experiments. Effects of compounds at varying concentrations were expressed as % of control (the mean plaque counts in drug treated wells/the mean plaque counts in control wells).
# (§4) HSV G and F strains were diluted to 200 pfu/ml with 5% MEM, respectively. […] Equal volumes of diluted virus and drugs were mixed and incubated at 37° C. water-bath for 1 h. One ml of the mixture was then used to infect confluent Vero cells in 6-well plates at 37° C. for 1 h. […]
# HSV-2 (strain G) = test: Inactivation of HSV-2 by pre-mixing with drug, plaque reduction assay; format: cell-based, herpes simplex virus; conditions: concentration 0.005%, pre-mixing for 1 h
# Method: as §1, §2, §3, §4
# Vero cells [3] = test: Cell death seen in the HSV inactivation plaque assays; format: cell-based, African green monkey; conditions: concentration 0.005%
# Method: HSV G and F strains were diluted to 200 pfu/ml with 5% MEM, respectively. […] Equal volumes of diluted virus and drugs were mixed and incubated at 37° C. water-bath for 1 h. One ml of the mixture was then used to infect confluent Vero cells in 6-well plates at 37° C. for 1 h. After infection, viral inoculum was removed and the cells washed with PBS. The cells were subsequently overlaid with 1.5 ml of 0.5% methylcellullose (diluted from 1% stock with 2×culture medium) for plaque assay.
smiles,measurement,setting,value
CCCCCCCCCCCCOS(=O)(=O)[O-].[Na+] [SDS],CC50 (cytotoxic concentration giving 50% of cell death),Vero cells [1],approximately 0.005%
same,inactivation of delta 333,[2],capable of inactivating
same,inactivation of HSV-1,HSV-1 (strain F),effective
same,inactivation of HSV-2,HSV-2 (strain G),effective
same,cell death,Vero cells [3],50%
